Here are results for 19 molecules from patent publication US20260325533A1, “CDK INHIBITOR COMPOUNDS” (ALEKSIA THERAPEUTICS, INC., priority 2023, published 2026).

Like-named read-outs stand apart in the source and are kept apart here.

Common to all, as to assay type: biochemical
Test [1] deals with CDK2/CCNE1 (Homo sapiens, UniProt P24941). The test is described as follows: CDK2 homogeneous time-resolved fluorescence (HTRF) kinase assay. Conditions: CDK2/CCNE. In short, it runs like this:
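Compounds were titrated 11-point, half-log from typically 10 μM against 3 nM CDK2/cyclin E1 at 1 mM ATP, with a 20 min enzyme preincubation. Phosphorylation of 50 nM ULight-4E-BP1 peptide over 60 min at 23 °C was detected by europium anti-phospho antibody TR-FRET.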

The target in test [2] is CDK1/CCNB1 (Homo sapiens, UniProt P06493). The test is described as follows: CDK1 homogeneous time-resolved fluorescence (HTRF) kinase assay. Conditions: CDK1/CCNB. The method, boiled down:
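Kinase activity is measured as Lance signal (665 nm, or 665/615 nm ratio) from europium-labelled anti-phospho-Thr37/46 antibody binding ULight-4E-BP1 peptide. Reactions contain 0.5 nM enzyme, 1 mM ATP, 1% DMSO and run 60 min at 23 °C before EDTA quench.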
Background: In TR-FRET formats the signal depends on donor and acceptor labels being close together.

In test [3] the target is CDK4/CCND3 (Homo sapiens, UniProt P11802). The test is described as follows: CDK4 homogeneous time-resolved fluorescence (HTRF) kinase assay. To be noted: CDK4/CCND. In short, it runs like this:
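Steps: compound plus 1.5 nM CDK4/CCND3, 20 min, 23 °C; add 1 mM ATP and 50 nM ULight-4E-BP1 (Thr37/46) peptide, 60 min; stop with 10 mM EDTA; add 2 nM Eu anti-phospho antibody, 60 min; read 665 nm. IC50 from 11-point half-log series starting 10 μM.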

For test [4], the target named is CDK6/CCND1 (Homo sapiens, UniProt Q00534). The experiment in a line: CDK6 homogeneous time-resolved fluorescence (HTRF) kinase assay. Conditions: CDK6/CCND. The method, boiled down:
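Enzyme pre-incubated 20 min at 23 °C with compound, then reacted 60 min at 23 °C with 1 mM ATP and 50 nM ULight-4E-BP1 (Thr37/46) peptide; 1 nM enzyme, 1% DMSO. EDTA-stopped, Eu-anti-phospho antibody TR-FRET read (665 nm or 665/615 ratio); 11-point half-log titration from 10 μM gave IC50.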

[5] abbreviates: x = IC50 <25 nM, read-out: CDK2/CCNE IC50 (<25 nM).
[6] abbreviates: x = IC50 >250 nM, read-out: CDK1/CCNB IC50 (>250 nM column).
Where [7] appears, read: x = IC50 >250 nM, read-out: CDK4/CCND IC50 (>250 nM column).
Setting [8] is: x = IC50 >250 nM, read-out: CDK6/CCND IC50 (>250 nM column).
Where [9] appears, read: x = IC50 25-250 nM, read-out: CDK2/CCNE IC50 (25-250 nM).
Setting [10] is: x = IC50 25-250 nM, read-out: CDK1/CCNB IC50 (25-250 nM).
Where [11] appears, read: x = IC50 25-250 nM, read-out: CDK4/CCND IC50 (25-250 nM).
[12] abbreviates: x = IC50 25-250 nM, read-out: CDK6/CCND IC50 (25-250 nM).

CDK1/CCNB1, sequence (P06493 whole entry): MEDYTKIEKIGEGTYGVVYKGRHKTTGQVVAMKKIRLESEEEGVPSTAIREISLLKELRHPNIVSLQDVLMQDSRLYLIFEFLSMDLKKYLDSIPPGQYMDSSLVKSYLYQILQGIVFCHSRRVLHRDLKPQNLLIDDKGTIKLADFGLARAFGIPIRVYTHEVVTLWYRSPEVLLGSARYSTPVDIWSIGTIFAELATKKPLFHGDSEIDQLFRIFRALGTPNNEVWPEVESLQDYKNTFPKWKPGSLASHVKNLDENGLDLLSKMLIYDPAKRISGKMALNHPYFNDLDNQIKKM
CDK1/CCNB1, sequence (P14635 whole entry partner): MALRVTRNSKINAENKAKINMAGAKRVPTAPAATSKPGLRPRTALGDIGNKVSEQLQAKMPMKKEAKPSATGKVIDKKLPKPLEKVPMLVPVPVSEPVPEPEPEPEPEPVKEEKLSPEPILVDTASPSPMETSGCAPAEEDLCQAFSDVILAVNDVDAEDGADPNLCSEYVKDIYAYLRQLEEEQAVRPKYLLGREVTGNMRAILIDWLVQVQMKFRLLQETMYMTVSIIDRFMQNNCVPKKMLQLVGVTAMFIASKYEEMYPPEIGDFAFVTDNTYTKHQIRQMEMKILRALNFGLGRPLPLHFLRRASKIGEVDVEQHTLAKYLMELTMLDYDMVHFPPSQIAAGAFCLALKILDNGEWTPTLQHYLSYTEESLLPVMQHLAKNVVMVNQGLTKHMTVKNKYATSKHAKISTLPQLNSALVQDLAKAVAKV
CDK4/CCND3, sequence (P11802 whole entry): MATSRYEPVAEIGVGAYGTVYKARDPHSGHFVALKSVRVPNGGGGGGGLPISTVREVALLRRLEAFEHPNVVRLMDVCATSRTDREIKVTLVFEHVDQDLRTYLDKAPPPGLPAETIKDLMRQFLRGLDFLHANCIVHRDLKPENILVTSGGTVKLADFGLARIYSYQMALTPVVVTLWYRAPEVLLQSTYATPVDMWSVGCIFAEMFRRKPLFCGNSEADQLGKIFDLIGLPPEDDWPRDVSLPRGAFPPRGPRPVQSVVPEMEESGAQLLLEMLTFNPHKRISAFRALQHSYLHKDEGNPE
CDK4/CCND3, sequence (P30281 whole entry partner): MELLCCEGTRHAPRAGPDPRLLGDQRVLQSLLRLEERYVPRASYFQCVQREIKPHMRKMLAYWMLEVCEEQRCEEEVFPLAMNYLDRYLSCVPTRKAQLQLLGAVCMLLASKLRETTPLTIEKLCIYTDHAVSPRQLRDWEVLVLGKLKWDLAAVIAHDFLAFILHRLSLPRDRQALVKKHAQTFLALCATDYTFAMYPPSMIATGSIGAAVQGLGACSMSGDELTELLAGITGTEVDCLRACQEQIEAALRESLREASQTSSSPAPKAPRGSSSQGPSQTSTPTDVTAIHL
CDK6/CCND1, sequence (Q00534 whole entry): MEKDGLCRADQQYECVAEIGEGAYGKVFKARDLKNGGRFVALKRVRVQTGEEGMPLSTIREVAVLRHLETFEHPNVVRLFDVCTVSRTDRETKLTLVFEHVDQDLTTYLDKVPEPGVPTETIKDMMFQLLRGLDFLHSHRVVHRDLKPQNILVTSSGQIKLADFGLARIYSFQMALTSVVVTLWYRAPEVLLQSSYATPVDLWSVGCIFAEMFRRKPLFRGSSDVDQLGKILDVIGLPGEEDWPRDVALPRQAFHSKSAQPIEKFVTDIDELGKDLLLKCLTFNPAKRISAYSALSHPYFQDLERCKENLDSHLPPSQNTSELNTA
CDK6/CCND1, sequence (P24385 whole entry partner): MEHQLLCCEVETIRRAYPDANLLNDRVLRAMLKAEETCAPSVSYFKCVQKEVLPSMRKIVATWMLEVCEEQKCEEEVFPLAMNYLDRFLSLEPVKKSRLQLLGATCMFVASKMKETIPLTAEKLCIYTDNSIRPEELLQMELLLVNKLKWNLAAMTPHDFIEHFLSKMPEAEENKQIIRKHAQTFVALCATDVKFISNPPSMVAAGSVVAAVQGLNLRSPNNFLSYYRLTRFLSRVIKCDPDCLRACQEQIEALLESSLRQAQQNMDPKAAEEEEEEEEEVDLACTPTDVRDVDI

Turning to `CS(=O)(=O)c1ccc(Nc2cc3c(C#Cc4ccc5nc[nH]c5c4)nccc3cn2)cc1` [Ex 648, 5-((1H-benzo[d]imidazol-6-yl)ethynyl)-N-(4-(methylsulfonyl)phenyl)-2,6-naphthyridin-3-amine], the IC50 in test [1] (setting [5]) is below 25 nM; in test [2] (setting [6]) it was above 250 nM; in test [3] (setting [7]), above 250 nM; in test [4] (setting [8]) it was above 250 nM.
As to `CS(=O)(=O)c1ccc(Nc2cc3c(-c4ccc5c(c4)CNC(=O)C5)nccc3cn2)cc1` [Ex 649, 7-(7-((4-(methylsulfonyl)phenyl)amino)-2,6-naphthyridin-1-yl)-1,4-dihydroisoquinolin-3(2H)-one], the IC50 in test [1] (setting [9]) was 25 to 250 nM; in test [2] (setting [6]), above 250 nM; in test [3] (setting [7]), above 250 nM; in test [4] (setting [8]), above 250 nM.
Turning to `CS(=O)(=O)c1ccc(Nc2cc3c(C#Cc4ccc(C#N)c(F)c4)nccc3cn2)cc1` [Ex 650, 2-fluoro-4-((7-((4-(methylsulfonyl)phenyl)amino)-2,6-naphthyridin-1-yl)ethynyl)benzonitrile], the IC50 was 25 to 250 nM in test [1] (setting [9]), above 250 nM in test [2] (setting [6]), above 250 nM in test [3] (setting [7]) and above 250 nM in test [4] (setting [8]).
With `CS(=O)(=O)c1ccc(Nc2cc3c(C#Cc4ccc(C#N)c(F)c4F)nccc3cn2)cc1` [Ex 651, 2,3-difluoro-4-((7-((4-(methylsulfonyl)phenyl)amino)-2,6-naphthyridin-1-yl)ethynyl)benzonitrile], the IC50 was 25 to 250 nM in test [1] (setting [9]), above 250 nM in test [2] (setting [6]), above 250 nM in test [3] (setting [7]) and above 250 nM in test [4] (setting [8]).
Regarding `CS(=O)(=O)c1ccc(Nc2cc3c(C#Cc4ccc(CCO)cc4)nccc3cn2)cc1` [Ex 652, 2-(4-((7-((4-(methylsulfonyl)phenyl)amino)-2,6-naphthyridin-1-yl)ethynyl)phenyl)ethan-1-ol], the IC50 in test [1] (setting [5]) was below 25 nM; in test [2] (setting [6]), above 250 nM; in test [3] (setting [7]), above 250 nM; in test [4] (setting [8]), above 250 nM.
`COC(=O)N1CCC(C#Cc2nccc3cnc(Nc4ccc(S(C)(=O)=O)cc4)cc23)CC1` [Ex 653, methyl 4-((7-((4-(methylsulfonyl)phenyl)amino)-2,6-naphthyridin-1-yl)ethynyl)piperidine-1-carboxylate]: the IC50 is 25 to 250 nM in test [1] (setting [9]), above 250 nM in test [2] (setting [6]), above 250 nM in test [3] (setting [7]) and above 250 nM in test [4] (setting [8]).
Consider `Cn1cc2c(Cl)c(-c3nccc4cnc(Nc5ccc(S(C)(=O)=O)cc5)cc34)ccc2n1` [Ex 655, 5-(4-chloro-2-methyl-2H-indazol-5-yl)-N-(4-(methylsulfonyl)phenyl)-2,6-naphthyridin-3-amine], for which the IC50 is below 25 nM in test [1] (setting [5]), above 250 nM in test [2] (setting [6]), above 250 nM in test [3] (setting [7]) and above 250 nM in test [4] (setting [8]).
Regarding `Cc1c(-c2nccc3cnc(Nc4ccc(S(C)(=O)=O)cc4)cc23)ccc2c1cnn2CC#N` [Ex 656, 2-(4-methyl-5-(7-((4-(methylsulfonyl)phenyl)amino)-2,6-naphthyridin-1-yl)-1H-indazol-1-yl)acetonitrile], the IC50 is 25 to 250 nM in test [1] (setting [9]), above 250 nM in test [2] (setting [6]), above 250 nM in test [3] (setting [7]) and above 250 nM in test [4] (setting [8]).
Regarding `Cc1c(-c2nccc3cnc(Nc4ccc(S(C)(=O)=O)cc4)cc23)ccc2c1ccn2CCO` [Ex 657, 2-(4-methyl-5-(7-((4-(methylsulfonyl)phenyl)amino)-2,6-naphthyridin-1-yl)-1H-indol-1-yl)ethan-1-ol], the IC50 in test [1] (setting [5]) was below 25 nM; in test [2] (setting [10]) it was 25 to 250 nM; in test [3] (setting [11]), 25 to 250 nM; in test [4] (setting [12]) it was 25 to 250 nM.
On to `Cc1c(-c2nccc3cnc(Nc4ccc(S(C)(=O)=O)cc4)cc23)ccc2cn[nH]c12` [Ex 658, 5-(7-methyl-1H-indazol-6-yl)-N-(4-(methylsulfonyl)phenyl)-2,6-naphthyridin-3-amine], for which the IC50 in test [1] (setting [5]) was below 25 nM; in test [2] (setting [10]) it was 25 to 250 nM; in test [3] (setting [11]), 25 to 250 nM; in test [4] (setting [12]), 25 to 250 nM.
For `COc1cc(C#Cc2nccc3cnc(Nc4ccc(S(C)(=O)=O)cc4)cc23)ccn1` [Ex 660, 5-((2-methoxypyridin-4-yl)ethynyl)-N-(4-(methylsulfonyl)phenyl)-2,6-naphthyridin-3-amine], the IC50 in test [1] (setting [9]) was 25 to 250 nM; in test [2] (setting [6]) it was above 250 nM; in test [3] (setting [7]) it was above 250 nM; in test [4] (setting [8]), above 250 nM.
Turning to `Cc1c(-c2nccc3cnc(Nc4ccc(S(=O)(=O)C5CC5)cc4)cc23)ccc2c1cnn2CCO` [Ex 662, 2-(5-(7-((4-(cyclopropylsulfonyl)phenyl)amino)-2,6-naphthyridin-1-yl)-4-methyl-1H-indazol-1-yl)ethan-1-ol], the IC50 in test [1] (setting [5]) was below 25 nM; in test [2] (setting [10]), 25 to 250 nM; in test [3] (setting [11]), 25 to 250 nM; in test [4] (setting [12]), 25 to 250 nM.
Regarding `CS(=O)(=O)c1ccc(Nc2cc3c(C#Cc4cn[nH]c4)nccc3cn2)cc1` [Ex 664, 5-((1H-pyrazol-4-yl)ethynyl)-N-(4-(methylsulfonyl)phenyl)-2,6-naphthyridin-3-amine], the IC50 is below 25 nM in test [1] (setting [5]), above 250 nM in test [2] (setting [6]), above 250 nM in test [3] (setting [7]) and above 250 nM in test [4] (setting [8]).
Regarding `N#Cc1ccc(C#Cc2nccc3cnc(Nc4ccc(S(=O)(=O)CCO)cc4)cc23)cc1` [Ex 665, 4-((7-((4-((2-hydroxyethyl)sulfonyl)phenyl)amino)-2,6-naphthyridin-1-yl)ethynyl)benzonitrile], the IC50 in test [1] (setting [9]) was 25 to 250 nM; in test [2] (setting [6]), above 250 nM; in test [3] (setting [7]), above 250 nM; in test [4] (setting [8]), above 250 nM.
Turning to `CS(=O)(=O)c1ccc(Nc2cc3c(C#Cc4ccc(=O)[nH]c4)nccc3cn2)cc1` [Ex 667, 5-((7-((4-(methylsulfonyl)phenyl)amino)-2,6-naphthyridin-1-yl)ethynyl)pyridin-2(1H)-one], the IC50 in test [1] (setting [5]) was below 25 nM; in test [2] (setting [10]), 25 to 250 nM; in test [3] (setting [11]), 25 to 250 nM; in test [4] (setting [8]), above 250 nM.
Turning to `CS(=O)(=O)c1ccc(Nc2cc3c(C#Cc4ccc(C#N)nc4)nccc3cn2)cc1` [Ex 669, 5-((7-((4-(methylsulfonyl)phenyl)amino)-2,6-naphthyridin-1-yl)ethynyl)picolinonitrile], the IC50 in test [1] (setting [9]) was 25 to 250 nM; in test [2] (setting [6]), above 250 nM; in test [3] (setting [7]) it was above 250 nM; in test [4] (setting [8]), above 250 nM.
Turning to `Cc1c(-c2nccc3cnc(Nc4ccc(S(N)(=O)=O)cc4)cc23)ccc2c1cnn2CCO` [Ex 673, 4-((5-(1-(2-hydroxyethyl)-4-methyl-1H-indazol-5-yl)-2,6-naphthyridin-3-yl)amino)benzenesulfonamide], the IC50 in test [1] (setting [5]) is below 25 nM; in test [2] (setting [10]), 25 to 250 nM; in test [3] (x = IC50 <25 nM, read-out: CDK4/CCND IC50 (<25 nM)), below 25 nM; in test [4] (x = IC50 <25 nM, read-out: CDK6/CCND IC50 (<25 nM)), below 25 nM.
Consider `Cc1c(-c2nccc3cnc(Nc4ccc(S(C)(=O)=O)cc4)cc23)ccc2c1cnn2CC(N)=O` [Ex 676, 2-(4-methyl-5-(7-((4-(methylsulfonyl)phenyl)amino)-2,6-naphthyridin-1-yl)-1H-indazol-1-yl)acetamide], for which the IC50 in test [1] (setting [5]) was below 25 nM; in test [2] (setting [10]), 25 to 250 nM; in test [3] (setting [11]), 25 to 250 nM; in test [4] (setting [12]) it was 25 to 250 nM.
Consider `Cc1c(-c2nccc3cnc(Nc4ccc(S(=O)(=O)NCC(F)(F)F)cc4)cc23)ccc2c1cnn2CC(O)(C(F)(F)F)C(F)(F)F` [Ex 684, 4-((5-(4-methyl-1-(3,3,3-trifluoro-2-hydroxy-2-(trifluoromethyl)propyl)-1H-indazol-5-yl)-2,6-naphthyridin-3-yl)amino)-N-(2,2,2-trifluoroethyl)benzenesulfonamide], for which the IC50 in test [1] (25-250 nM, read-out: CDK2/CCNE IC50, 25-250 nM) is 25 to 250 nM; in test [2] (>250 nM, read-out: CDK1/CCNB IC50 >250 nM), above 250 nM; in test [3] (>250 nM, read-out: CDK4/CCND IC50, >250 nM) it was above 250 nM; in test [4] (>250 nM, 1 mM ATP, read-out: CDK6/CCND IC50, >250 nM), above 250 nM.
